{"source": "patent US20050282870A1", "about": "“Peripherally-acting vasodilators” (priority 2004, published 2005)", "test_system": "forearm and dorsum of the foot skin", "test": "Skin vasodilatory response to topical application of 1% methyl nicotinate, Laser Doppler Perfusion Imaging", "assay_type": "in vivo, human", "conditions": "for maximal vasodilatory response: compared with acetylcholine and sodium nitroprusside", "description": "Vasodilation induced by topical application of methyl nicotinate was evaluated and compared with the vasodilatory response to acetylcholine and sodium nitroprusside in healthy subjects and diabetic neuropathic patients. Ten diabetic patients with peripheral neuropathy and 10 age- and sex-matched healthy control subjects were enrolled. The vasodilatory response to topical application of 1% methyl nicotinate and a placebo emulsion at the forearm and dorsum of the foot skin at 4, 15, 30, 60 and 120 min was measured using Laser Doppler Perfusion Imaging. The vasodilatory response to iontophoresis of 1% acetylcholine and 1% sodium nitroprusside solutions was also evaluated.", "data": [{"smiles": "COC(=O)c1cccnc1", "note": "[methyl nicotinate]", "values": [{"measurement": "vasodilatory response", "setting": "control group (healthy subjects), foot, topical 1%, compared to acetylcholine and sodium nitroprusside responses", "value": "higher"}, {"measurement": "maximal vasodilatory response", "setting": "control group (healthy subjects), forearm, topical 1%", "value": "similar"}, {"measurement": "maximal vasodilatory response", "setting": "diabetic patients with peripheral neuropathy, forearm and foot, topical 1%", "value": "similar"}, {"measurement": "time after application at which vasodilation was present", "setting": "topical 1% methyl nicotinate", "value": 5, "unit": "min"}, {"measurement": "time of decline of vasodilation to pre-application levels", "setting": "topical 1% methyl nicotinate", "value": 120, "unit": "min"}, {"measurement": "time of peak vasodilation", "setting": "topical 1% methyl nicotinate", "value": "15 to 30", "unit": "min"}]}]}
